# Data: patent publication US12544450B2, “Medical uses of thiol-functionalized polyglycerol derivatives” (FREIE UNIVERSITÄT BERLIN, priority 2019, dated 2026)
# Entries after “also recorded” stand apart in the source; their conditions may differ.
# System: lung mucus collected from patients with cystic fibrosis
# Test: Macrorheology of cystic fibrosis lung mucus after treatment with reducing agents
# Set-up: species or system human
# Settings: 30 min at 37° C.; for Viscosity of CF mucus after treatment: frequency sweep at 2% strain, FIG. 8
# Procedure: In order to determine the mucolytic potential of thiol-functionalized polyglycerol derivatives the rheological properties of lung mucus, which was collected from patients with cystic fibrosis, were determined before and after treatment with different reducing or control agents. In addition, mucus from a healthy donor was used as control. Rheological measurements can be generally used to determine both elastic and viscous material components. Clinical samples were obtained freshly from cystic fibrosis (CF) patients at Charité Berlin and put directly on ice after collection. Then, the samples were mixed with a protease inhibitor cocktail (Roche) and aliquoted in 150 μl portions. The samples were then treated with different concentrations of freshly prepared reducing agents for 30 min at 37° C. Control samples were kept on ice throughout the incubation time or treated with phosphate-buffered saline (PBS) and incubated for 30 min at 37° C. After the incubation time all samples were kept on ice until use for the macrorheological studies. Here, a Kinexus instrument (Malvern) with a cone-and-plate setup was used. The cone geometry was 20 mm diameter and a […] angle. Each sample was run with an amplitude sweep mode at an oscillatory frequency of 1 Hz to determine the linear viscoelastic regime. In order to obtain viscosity parameters, measurements were repeated at 2% stain in a frequency sweep mode.
SMILES,"Elastic modulus (G') of CF mucus after treatment (amplitude sweep at 1 Hz, FIG. 7)",Viscosity of CF mucus after treatment
"CC(=O)N[C@@H](CS)C(=O)O [NAC, N-acetylcysteine]",comparably slight reduction of the elastic modulus like a treatment with physiological phosphate buffer (PBS),does not show any enhanced mucolytic activity than PBS
"O[C@H](CS)[C@H](O)CS (racemic) [DTT, Dithiothreitol]",,reduces the viscosity of CF mucus to level significantly below the viscosity level of mucus from healthy individuals; also recorded: completely destroys the viscosity properties of mucus
